The values that follow come from patent US20060246163A1, “TREATMENT OF INSULIN RESISTANCE SYNDROME” (TG BIOTECH, priority 2005, published 2006).

Common to all, as to format: cell-based
One assay relates to IKKβ. Briefly: IKKβ phosphorylation/activity in L6 myotube cells in the presence of tunicamycin. The settings on record: GP 30, 60 μg/mL, AICAR 1 mM, insulin 100 nM.
For a further assay, the system named is ACC. As to the kind of experiment: ACC Ser79 phosphorylation in L6 myotube cells. The settings on record: GP 30, 60, 100 μg/mL; AICAR 1 mM; insulin 100 nM. How it is done: (§1) 1) control; 2) GP 30 μg/mL; 3) GP 60 μg/mL; 4) GP 100 μg/mL; 5) AICAR 1 mM; 6) insulin 100 nM.
L6 myotube cells were treated with GP and AICAR.

The next assay deals with JNK. As to the kind of experiment: JNK activity in L6 myotube cells, phospho JNK immunoblot. The settings on record: 2 hs; GP 30, 60 μg/mL; AICAR 1 mM; insulin 100 nM. How it is done: L6 myotube cells were treated with GP for 2 hs. Cytosolic fraction was immunoblotted against phospho JNK antibodies. 1) control cells with no treatment; 2) GP 30 μg/ mL; 3) GP 60 μg/ mL; 4) AICAR 1 mM; 5) insulin 100 nM. We also investigated effects of GP treatment on JNK activity in L6 myotube cells.
A general note: Immunoblotting shows a protein as a band on a membrane.

The subject of a further assay is AKT. As to the kind of experiment: AKT phosphorylation/activity in L6 cells. Particulars: GP 30, 60, 100 μg/mL; AICAR 1 mM; insulin 100 nM. The method, then: as §1
AKT (also called protein kinase B, PKB) phosphorylation is catalyzed by PI3K in insulin signal pathway. Whether GP treatment on the muscle cells affects AKT activity was tested.

The subject of another assay is L6 myotube cells. Briefly: 2-deoxyglucose uptake in L6 myotube cells. Particulars: high glucose; GP 60 μg/mL 2 hs, AICAR 1 mM 1 h, insulin 100 nM 20 min. How it is done: Examples 1-5 indicate that GP would increase glucose uptake regardless of the presence of insulin. To measure the glucose uptake in vitro, we performed 2-deoxyglucose uptake experiment. Since 2-deoxyglucose is not metabolized inside cells, radiolabeled 2-deoxyglucose was used for measuring glucose uptake experiment. Whether GP increases glucose uptake in L6 myotube cells was investigated. Prior to adding the materials, the cells were incubated in the presence of high glucose, since high glucose is known to obstruct glucose uptake in muscle […] (60 μg/mL), AICAR (1 mM) and insulin (100 nM) were incubated for 2 hs, 1 h and 20 min, respectively. Immediately after washing in Hepes buffered saline (HBS), the cells were incubated with 2-deoxyglucose (10 μM) in HBS for 10 min. Extensive washing was preceded before measuring radioactivity in scintillation counter. The uptake unit was estimated by the total counts of incubation.

A further assay relates to p38 MAPK. As to the kind of experiment: p38 MAPK activation in L6 cells. The settings on record: GP 30, 60 μg/mL; AICAR 1 mM.
For the next assay, the system named is AMPK. As to the kind of experiment: AMPK phosphorylation (threonine 172) in L6 myotube cells, immunoblot. Particulars: 1 mM, high glucose.

Description for AMPK: L6 myotube cells were treated with 60 μg/mL of GP and incubated for the period of time indicated. Cells were lysed in lysis buffer and cytosolic proteins were resolved by SDS-PAGE, protein bands were transferred onto a nitrocellulose membrane, and phospho-AMPK was analyzed with specific antibodies. 1) control cells with no treatment; 2) cells treated with GP for 30 min; 3) cells treated with GP for 1 h; 3) cells with treated with GP for 2 hs.
(§2) The kinase activities were evaluated with specific antibodies. 1) control; 2) GP 30 μg/mL; 3) GP 60 μg/mL; 4) AICAR 1 mM.
We treated GP on L6 myotube cells to determine whether the treatment activates AMPK activity. Activation of AMPK was estimated by the increase in the phosphorylation on the threonine^172 residue of AMPK using specific antibodies. […] Cells were pretreated with high glucose (27.5 mM) to induce insulin resistance and to repress AMPK activation (Itani, 2003).
(§3) L6 cells were differentiated into mature muscle cells in a low serum condition (2%, v/v). AICAR was used as an internal positive control. Once drug treatments were completed, cells were harvested, subjected to be lysated, and equal amount of proteins from each treatment was loaded on gels for analyzing AMPK and p38 MAPK activity levels (FIG. 7). Total AMPK protein was also immunoblotted to make sure that equal amount of protein was loaded on the gels.
Description for IKKβ: The cytosolic fraction was subjected on SDS-PAGE and blotted on nitrocellulose membrane. The membrane was incubated with anti-phospho-IKKβ (S^177/181), anti-phospho IRS1 (S^307), and anti-phospho SAPK/JNK (T^183) antibodies. 1) control cells with no treatment; 2) L6 cells treated with tunicamycin; 3) cells treated with 30 μg/mL GP in the presence of tunicamycin; 4) cells treated with 60 μg/mL GP in the presence of tunicamycin; 5) cells treated with 1 mM AICAR in the presence of tunicamycin; 6) cells incubated with 100 nM insulin in the presence of tunicamycin; 7) cells incubated with 100 nM insulin in the absence of tunicamycin.
The effect of GP on the phosphorylation of IKKβ in L6 myotube cells in the presence of tunicamycin was evaluated. The cytosolic fraction was subjected to SDS-PAGE and blotted on nitrocellulose membrane. The cytosolic fraction was subjected to SDS-PAGE and blotted on nitrocellulose membrane. The membrane was incubated with anti-phospho-IKKβ (S^177/181), anti-phospho IRS1 (S^307), and anti-phospho SAPK/JNK (T^183) antibodies.
Description for p38 MAPK: as §2, §3
We investigated whether GP is able to activate p38 MAPK in L6 cells.

As to “insulin: hormone used as positive marker/control for GLUT4 translocation and AKT activation”, the “Serine phosphorylation / activity of IKKβ” value in the assay with IKKβ is listed as “slightly reduced”. In the assay with ACC, the “Phosphorylation of Ser79 of ACC” value was “did not affect the phosphorylation”. Moreover, the JNK activity result in the assay with JNK is “not affected”. Also, the “AKT activity (phosphorylation)” value in the assay on AKT is given as “activated AKT activity considerably”. Also, the “Increase of 2-deoxyglucose uptake, on average” value in the assay on L6 myotube cells amounted to 40%.
Regarding `NC(=O)c1ncn([C@@H]2O[C@H](COP(=O)(O)O)[C@@H](O)[C@H]2O)c1N` [AICAR, 5′-phosphoribosyl-5-aminoimidazole-4-carboxamide], the “p38 MAPK activation” value in the assay on p38 MAPK is listed as “exhibited p38 activation”. In addition, in the assay on IKKβ, the “Serine phosphorylation / activity of IKKβ” value is “slightly reduced”. Besides, the “Phosphorylation of Ser79 of ACC” value in the assay on ACC was “increased the phosphorylation of ACC but slightly less than that observed with 30 μg/mL of GP”. Also, the JNK activity entry with JNK is on record as “not affected”. In addition, in the assay on AMPK, the “Phosphorylation level of AMPK” value is reported as “comparable to that of 60 μg/mL of GP”. In the assay with AKT, the “AKT activity (phosphorylation)” value is given as “Neither GP nor AICAR appeared to affect AKT activity”. Further, the “Increase of 2-deoxyglucose uptake, on average” value with L6 myotube cells is given as 42%.
